A value given as a limit tells only on which side of the number the result lay.

The subject of assay [1] is Capan-2. Put plainly: Cell proliferation by MTS method, Capan-2. The settings on record: Homo sapiens; Table 1, Capan-2; read-out: Tumour cell proliferative activity/IC50(nM) Pancreatic Cancer Capan-2. The class given is cell-based. The text has this: (§1) (2) Detection of Cell Proliferation by MTS Method
(§2) The MTS assay is a method for indirectly determining the number of living cells via colourimetric method. MTS is a newly synthesised tetrazole compound that reflects cell viability, which can be reduced by succinate dehydrogenase in the mitochondria of living cells to an orange-coloured formazan with an absorbance of the reduced product measured at 490 nm being in proportion to the number of living cells, thus reflecting the cell viability. This assay can be used to evaluate the effect of the compound on the proliferation of pancreatic cancer cells, thereby determining the inhibitory effect of the compound on the proliferation of pancreatic cancer cells and to calculate the IC^50. Each cells were inoculated uniformly into a 96-well plate at a density of 1-20×10^3 cells/well, 100 μL per well, and placed in a constant temperature incubator until the cells adhered to the wall. The control group was added with the corresponding medium and the experimental groups were given different concentrations of the compound prepared by the examples of the present invention, and the cells were taken out 24-96 h after administration for observing the cell state under a microscope. Under light-proof conditions, MTS was added and well mixed, the mixture was placed in a constant temperature incubator at 37° C., and the light absorption value were measured using an enzyme marker at 490 nm and the experiment was repeated for three times, IC50 was calculated with GraphPad5 Prism software.

The subject of assay [2] is MKN45. Put plainly: Cell proliferation by MTS method, MKN45. The class given is cell-based. The conditions noted are these: Homo sapiens, MKN-45; Table 1, MKN45; read-out: Tumour cell proliferative activity/IC50(nM) gastric Cancer MKN45.
Text: as §1, §2
In general terms: Tetrazolium assays rely on reduction of a dye to a coloured formazan, in cell work by metabolically active cells.

Assay [3] has as its target STAT3 protein (Homo sapiens, UniProt P40763). Put plainly: Binding activity to STAT3 protein by microscale thermophoresis (MST). The settings on record: purified STAT3 recombinant protein. From the text: (1) Determination of Binding Activities of Compounds to STAT3 Protein by Microscale Thermophoresis (MST) Method
The microscale thermophoresis (MST) technique is a simple, rapid, and accurate method for quantifying biomolecular interactions. It can measure the movement of molecules in a microscopic temperature gradient field, as well as detect changes of molecular hydration shell, charge and size. When the Nanotemper microscale thermophoresis instrument locally heated by a infrared laser, molecules will move in a directional manner, then the molecular distribution ratio in the temperature gradient field are analyzed by a fluorescence to detect whether a small molecule compound binds to a target protein. The experimental operation is as follows: firstly, compounds to be tested are diluted in a gradient using MST test buffer, total 16 concentrations being configured; subsequently, the purified STAT3 recombinant protein is labeled using the HIS tag labeling kit, and the final concentration of the labeled protein is 100-200 nM; the labeled STAT3 proteins are well mixed with the diluted compounds and incubated and protected from light for 30 minutes; finally the samples were loaded by capillary tube and detected on the instrument. The binding constants (K^D) of small molecules to STAT3 protein were analyzed by Mo. analysis software.
(In MST a laser heats a spot of the sample, and binding alters the fluorescence response.)

Assay [4] deals with Huh7. Put plainly: Cell proliferation by MTS method, Huh7. The class given is cell-based. The conditions noted are these: Homo sapiens, Huh-7; Table 1, Huh7; read-out: Tumour cell proliferative activity/IC50(nM) Liver Cancer Huh7.
Text: as §1, §2

For assay [5], the system named is HCC827. The experiment in a line: Cell proliferation by MTS method, HCC827. It counts as cell-based. The settings on record: Homo sapiens; Table 1, HCC827; read-out: Tumour cell proliferative activity/IC50(nM) Lung Cancer HCC827.
Text: as §1, §2

Sequence of STAT3 protein (P40763 whole entry): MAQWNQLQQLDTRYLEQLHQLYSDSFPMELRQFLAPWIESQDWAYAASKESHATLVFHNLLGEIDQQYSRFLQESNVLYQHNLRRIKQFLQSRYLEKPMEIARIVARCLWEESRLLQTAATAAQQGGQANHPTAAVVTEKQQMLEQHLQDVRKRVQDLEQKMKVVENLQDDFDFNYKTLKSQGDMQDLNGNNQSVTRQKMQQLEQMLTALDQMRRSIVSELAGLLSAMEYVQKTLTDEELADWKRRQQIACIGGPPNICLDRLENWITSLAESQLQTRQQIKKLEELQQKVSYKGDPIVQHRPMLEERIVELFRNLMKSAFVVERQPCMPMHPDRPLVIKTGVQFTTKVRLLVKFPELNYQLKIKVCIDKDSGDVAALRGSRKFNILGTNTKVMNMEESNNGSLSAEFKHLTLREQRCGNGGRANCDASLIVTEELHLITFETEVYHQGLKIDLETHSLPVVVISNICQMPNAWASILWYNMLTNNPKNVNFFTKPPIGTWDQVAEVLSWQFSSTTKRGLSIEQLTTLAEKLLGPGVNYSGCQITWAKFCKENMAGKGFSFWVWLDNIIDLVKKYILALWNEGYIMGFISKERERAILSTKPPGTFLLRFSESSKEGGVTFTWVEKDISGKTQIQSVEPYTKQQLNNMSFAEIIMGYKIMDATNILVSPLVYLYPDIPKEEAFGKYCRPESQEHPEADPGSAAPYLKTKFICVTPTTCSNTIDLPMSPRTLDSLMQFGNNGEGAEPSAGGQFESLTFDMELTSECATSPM

In the case of `CCn1c(C(=O)N2CCN(Cc3ccc(OCC(F)(F)F)cc3)CC2)cc2ccc(Oc3cnc(-c4nc(-c5ccc(C(F)(F)F)cc5)no4)cn3)cc21` [Example 15, (1-ethyl-6-((5-(3-(4-(trifluoromethyl)phenyl)-1,2,4-oxadiazol-5-yl)pyrazin-2-yl)oxy)-1H-indol-2-yl)(4-(4-(2,2,2-trifluoromethoxy)benzyl)piperazin-1-yl)methanone], the IC50 in assay [1], in assay [2], in assay [4] and in assay [5] was less than 10 nM in each case. In assay [3], the dissociation constant Kd was less than 10 nM.

For `CCCn1c(C(=O)N2CCN(Cc3ccc(OCC(F)(F)F)cc3)CC2)cc2ccc(Oc3cnc(-c4nc(-c5ccc(C(F)(F)F)cc5)no4)cn3)cc21` [Example 16, (1-propyl-6-((5-(3-(4-(trifluoromethyl)phenyl)-1,2,4-oxadiazol-5-yl)pyrazin-2-yl)oxy)-1H-indol-2-yl)(4-(4-(2,2,2-trifluoromethoxy)benzyl)piperazin-1-yl)methanone], the IC50 in assay [1], in assay [2], in assay [4] and in assay [5] was less than 100 nM throughout. Besides, the Kd in assay [3] was less than 100 nM.

For `C=CCn1c(C(=O)N2CCN(Cc3ccc(OCC(F)(F)F)cc3)CC2)cc2ccc(Oc3cnc(-c4nc(-c5ccc(C(F)(F)F)cc5)no4)cn3)cc21` [Example 17, (1-allyl-6-((5-(3-(4-(trifluoromethyl)phenyl)-1,2,4-oxadiazol-5-yl)pyrazin-2-yl)oxy)-1H-indol-2-yl) (4-(4-(2,2,2-trifluoromethoxy)benzyl)piperazin-1-yl)methanone], the IC50 in assay [1], in assay [2], in assay [4] and in assay [5] was less than 10 nM throughout. In addition, the Kd in assay [3] was less than 10 nM.

As to `COCCn1c(C(=O)N2CCN(Cc3ccc(OCC(F)(F)F)cc3)CC2)cc2ccc(Oc3cnc(-c4nc(-c5ccc(C(F)(F)F)cc5)no4)cn3)cc21` [Example 18, (1-(2-methoxyethyl)-6-((5-(3-(4-(trifluoromethyl)phenyl)-1,2,4-oxadiazol-5-yl)pyrazin-2-yl)oxy)-1H-indol-2-yl) (4-(4-(2,2,2-trifluoroethoxy)benzyl)piperazin-1-yl)methanone], the IC50 in assay [1], in assay [2], in assay [4] and in assay [5] was less than 100 nM throughout. In addition, in assay [3], the Kd was less than 100 nM.

Regarding `CC(C)C(=O)n1c(C(=O)N2CCN(Cc3ccc(OCC(F)(F)F)cc3)CC2)cc2ccc(Oc3cnc(-c4nc(-c5ccc(C(F)(F)F)cc5)no4)cn3)cc21` [Example 19], the IC50 in assay [1], in assay [2], in assay [4] and in assay [5] was less than 10 nM in each case. The Kd in assay [3] was less than 10 nM.

On to `COC(=O)Cn1c(C(=O)N2CCN(Cc3ccc(OCC(F)(F)F)cc3)CC2)cc2ccc(Oc3cnc(-c4nc(-c5ccc(C(F)(F)F)cc5)no4)cn3)cc21` [Example 20], for which the IC50 in assay [1], in assay [2], in assay [4] and in assay [5] was less than 1000 nM throughout. Moreover, in assay [3], the dissociation constant Kd is less than 1000 nM.

`CCOC(=O)Cn1c(C(=O)N2CCN(Cc3ccc(OCC(F)(F)F)cc3)CC2)cc2ccc(Oc3cnc(-c4nc(-c5ccc(C(F)(F)F)cc5)no4)cn3)cc21` [Example 21]: the IC50 in assay [1], in assay [2], in assay [4] and in assay [5] was less than 1000 nM throughout. Also, the Kd in assay [3] was less than 100 nM.

As to `O=C(c1cc2ccc(Oc3cnc(-c4nc(-c5ccc(C(F)(F)F)cc5)no4)cn3)cc2n1Cc1ccccc1)N1CCN(Cc2ccc(OCC(F)(F)F)cc2)CC1` [Example 22], the IC50 in assay [1], in assay [2], in assay [4] and in assay [5] was less than 1000 nM each time. In addition, the Kd in assay [3] was less than 100 nM.

Regarding `Cn1c(C(=O)N2CCN(Cc3ccccc3)CC2)cc2ccc(Oc3cnc(-c4nc(-c5ccc(C(F)(F)F)cc5)no4)cn3)cc21` [Example 23, (4-benzylpiperazin-1-yl)(1-methyl-6-((5-(3-(4-(trifluoromethyl)phenyl)-1,2,4-oxadiazol-5-yl)pyrazin-2-yl)oxy)-1H-indol-2-yl)methanone], the IC50 in assay [1], in assay [2], in assay [4] and in assay [5] was less than 1000 nM in each case. Besides, the equilibrium dissociation constant (Kd) in assay [3] was less than 100 nM.

As to `Cc1cccc(CN2CCN(C(=O)c3cc4ccc(Oc5cnc(-c6nc(-c7ccc(C(F)(F)F)cc7)no6)cn5)cc4n3C)CC2)c1` [Example 24, (1-methyl-6-((5-(3-(4-(trifluoromethyl)phenyl)-1,2,4-oxadiazol-5-yl)pyrazin-2-yl)oxy)-1H-indol-2-yl) (4-(3-methylbenzyl)piperazin-1-yl)methanone], the IC50 in assay [1], in assay [2], in assay [4] and in assay [5] was less than 1000 nM in each case. For the same compound, the Kd in assay [3] is less than 100 nM.

Regarding `Cc1ccc(CN2CCN(C(=O)c3cc4ccc(Oc5cnc(-c6nc(-c7ccc(C(F)(F)F)cc7)no6)cn5)cc4n3C)CC2)cc1` [Example 25, (1-methyl-6-((5-(3-(4-(trifluoromethyl)phenyl)-1,2,4-oxadiazol-5-yl)pyrazin-2-yl)oxy)-1H-indol-2-yl) (4-(4-methylbenzyl)piperazin-1-yl)methanone], the IC50 in assay [1], in assay [2], in assay [4] and in assay [5] was less than 100 nM each time. Further, the Kd in assay [3] was less than 100 nM.

Turning to `Cn1c(C(=O)N2CCN(Cc3ccc(F)cc3)CC2)cc2ccc(Oc3cnc(-c4nc(-c5ccc(C(F)(F)F)cc5)no4)cn3)cc21` [Example 26, (4-(4-fluorobenzyl)piperazin-1-yl)(1-methyl-6-((5-(3-(4-(trifluoromethyl)phenyl)-1,2,4-oxadiazol-5-yl)pyrazin-2-yl)oxy)-1H-indol-2-yl)methanone], the IC50 in assay [1], in assay [2], in assay [4] and in assay [5] was less than 1000 nM throughout. Also, the Kd in assay [3] was less than 1000 nM.

For the compound `Cn1c(C(=O)N2CCN(Cc3ccc(Cl)cc3)CC2)cc2ccc(Oc3cnc(-c4nc(-c5ccc(C(F)(F)F)cc5)no4)cn3)cc21` [Example 27, (4-(4-chlorobenzyl)piperazin-1-yl)(1-methyl-6-((5-(3-(4-(trifluoromethyl)phenyl)-1,2,4-oxadiazol-5-yl)pyrazin-2-yl)oxy)-1H-indol-2-yl)methanone], the IC50 in assay [1], in assay [2], in assay [4] and in assay [5] was less than 100 nM each time. For the same compound, the Kd in assay [3] was less than 100 nM.

As to `Cn1c(C(=O)N2CCN(Cc3ccc(Br)cc3)CC2)cc2ccc(Oc3cnc(-c4nc(-c5ccc(C(F)(F)F)cc5)no4)cn3)cc21` [Example 28, (4-(4-bromobenzyl)piperazin-1-yl)(1-methyl-6-((5-(3-(4-(trifluoromethyl)phenyl)-1,2,4-oxadiazol-5-yl)pyrazin-2-yl)oxy)-1H-indol-2-yl)methanone], the IC50 in assay [1], in assay [2], in assay [4] and in assay [5] was less than 100 nM throughout. Moreover, the Kd in assay [3] was less than 100 nM.

As to `Cn1c(C(=O)N2CCN(Cc3cccc(C(F)(F)F)c3)CC2)cc2ccc(Oc3cnc(-c4nc(-c5ccc(C(F)(F)F)cc5)no4)cn3)cc21` [Example 29, (1-methyl-6-((5-(3-(4-(trifluoromethyl)phenyl)-1,2,4-oxadiazol-5-yl)pyrazin-2-yl)oxy)-1H-indol-2-yl)(4-(3-(trifluoromethyl)benzyl)piperazin-1-yl)methanone], the IC50 in assay [1], in assay [2], in assay [4] and in assay [5] was less than 1000 nM each time. Besides, in assay [3], the Kd was less than 1000 nM.

The term Kd denotes the constant that tells how readily two partners part at equilibrium.

These data come from patent US12448372B2, “Class of triaromatic compounds targeting bifunctional phosphorylation site of STAT3 and applications thereof” (SHANGHAI YUYAO BIOTECH LTD., priority 2019, dated 2025).
